PubChem BioAssay (NCI)
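Protocol summary: plate cells (96-well), add compound at 5 concentrations, incubate 48 h, interpolate endpoints linearly. At the TGI there is no net growth.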

Assays:
Experiment in all cases: NCI tumour cell line growth inhibition, 48 h
[1] = test system: SK-MEL-5 melanoma
[2] = test system: DU-145 prostate
[3] = test system: PC-3 prostate
[4] = test system: HS 578T breast
[5] = test system: OVCAR-4 ovarian
[6] = test system: SK-OV-3 ovarian
[7] = test system: KM12 colon
[8] = test system: SR leukemia
[9] = test system: SNB-19 CNS
[10] = test system: ACHN renal
[11] = test system: IGROV1 ovarian
[12] = test system: MDA-N
[13] = test system: NCI-H460 lung
[14] = test system: K-562 leukemia
[15] = test system: LOX IMVI melanoma
[16] = test system: OVCAR-3 ovarian
[17] = test system: U251 CNS
[18] = test system: HCC-2998 colon
[19] = test system: A549 NSCLC
[20] = test system: OVCAR-5 ovarian
[21] = test system: MALME-3M melanoma
[22] = test system: NCI-H23 lung
[23] = test system: HCT-15 colon
[24] = test system: HT29 colon
[25] = test system: T-47D breast
[26] = test system: CCRF-CEM leukemia
[27] = test system: SN12C renal
[28] = test system: MCF7 breast
[29] = test system: HOP-62 NSCLC
[30] = test system: HCT-116 colon
[31] = test system: NCI-H522 lung
[32] = test system: RPMI-8226 leukemia
[33] = test system: M14 melanoma
[34] = test system: MDA-MB-435
[35] = test system: UACC-62 melanoma
[36] = test system: NCI/ADR-RES ovarian
[37] = test system: SW-620 colon
[38] = test system: 786-0 renal
[39] = test system: CAKI-1 renal
[40] = test system: SF-268 CNS
[41] = test system: BT-549 breast
[42] = test system: A498 renal
[43] = test system: SNB-75 CNS
[44] = test system: SF-539 CNS
[45] = test system: UACC-257 melanoma
[46] = test system: SF-295 CNS
[47] = test system: SK-MEL-28 melanoma
[48] = test system: OVCAR-8 ovarian
[49] = test system: HOP-92 NSCLC
[50] = test system: MOLT-4 leukemia
[51] = test system: EKVX NSCLC
[52] = test system: SK-MEL-2 melanoma
[53] = test system: COLO 205 colon
[54] = test system: UO-31 renal
[55] = test system: TK-10 renal
[56] = test system: HL-60(TB) leukemia
[57] = test system: RXF 393 renal
[58] = test system: NCI-H226 lung
[59] = test system: MDA-MB-231 breast

Question: Which TGI [1] does the source give for `CCOC(=O)/C=C(/C(=O)OCC)n1cc(C)c(=O)n(/C(=C/C(=O)OCC)C(=O)OCC)c1=O` here?
Answer: Its TGI is 20.8 µM.

Question: What about the TGI [2] of the same compound?
Answer: Its TGI is 26.6 µM.

Question: What about the TGI [3] of the same compound?
Answer: The TGI was 12.3 µM.

Question: And the TGI [4]?
Answer: Its TGI is 45.7 µM.

Question: What about the TGI [5] of the same compound?
Answer: Its TGI is greater than 22.3 µM.

Question: And the TGI [6]?
Answer: The TGI was 31.5 µM.

Question: What about the TGI [7] of the same compound?
Answer: Its TGI is 30.1 µM.

Question: And the TGI [8]?
Answer: Its TGI is 5.72 µM.

Question: What about the TGI [9] of the same compound?
Answer: The TGI was 36.3 µM.

Question: What about the TGI [10] of the same compound?
Answer: Its TGI is 4.08 µM.

Question: What about the TGI [11] of the same compound?
Answer: The TGI was 17 µM.

Question: And the TGI [12]?
Answer: The TGI was 13.7 µM.

Question: And the TGI [13]?
Answer: Its TGI is 37.1 µM.

Question: What about the TGI [14] of the same compound?
Answer: Its TGI is 3.81 µM.

Question: And the TGI [15]?
Answer: The TGI was 7.59 µM.

Question: And the TGI [16]?
Answer: Its TGI is 7.7 µM.

Question: What about the TGI [17] of the same compound?
Answer: The TGI was 19.3 µM.

Question: And the TGI [18]?
Answer: Its TGI is 22.1 µM.

Question: What about the TGI [19] of the same compound?
Answer: The TGI was 31.8 µM.

Question: What about the TGI [20] of the same compound?
Answer: Its TGI is 14.3 µM.

Question: And the TGI [21]?
Answer: The TGI was 4.36 µM.

Question: And the TGI [22]?
Answer: The TGI was 12.9 µM.

Question: And the TGI [23]?
Answer: Its TGI is 4.01 µM.

Question: What about the TGI [24] of the same compound?
Answer: Its TGI is 7.72 µM.

Question: What about the TGI [25] of the same compound?
Answer: The TGI was 7.86 µM.

Question: What about the TGI [26] of the same compound?
Answer: Its TGI is 1.53 µM.

Question: And the TGI [27]?
Answer: The TGI was 8.58 µM.

Question: And the TGI [28]?
Answer: The TGI was 5.5 µM.

Question: And the TGI [29]?
Answer: The TGI was 43.3 µM.

Question: And the TGI [30]?
Answer: Its TGI is 4.88 µM.

Question: And the TGI [31]?
Answer: Its TGI is 1.88 µM.

Question: And the TGI [32]?
Answer: The TGI was 4.52 µM.

Question: And the TGI [33]?
Answer: The TGI was 6.48 µM.

Question: And the TGI [34]?
Answer: Its TGI is 7.76 µM.

Question: What about the TGI [35] of the same compound?
Answer: Its TGI is 19.4 µM.

Question: What about the TGI [36] of the same compound?
Answer: Its TGI is 26.1 µM.

Question: What about the TGI [37] of the same compound?
Answer: Its TGI is 3.03 µM.

Question: What about the TGI [38] of the same compound?
Answer: The TGI was 2.56 µM.

Question: And the TGI [39]?
Answer: Its TGI is 2.14 µM.

Question: What about the TGI [40] of the same compound?
Answer: Its TGI is 32.8 µM.

Question: And the TGI [41]?
Answer: The TGI was 15.9 µM.

Question: And the TGI [42]?
Answer: The TGI was 36.8 µM.

Question: What about the TGI [43] of the same compound?
Answer: The TGI was 24 µM.

Question: What about the TGI [44] of the same compound?
Answer: Its TGI is 23.5 µM.

Question: What about the TGI [45] of the same compound?
Answer: Its TGI is 10.9 µM.

Question: And the TGI [46]?
Answer: The TGI was 33.5 µM.

Question: And the TGI [47]?
Answer: Its TGI is 5.04 µM.

Question: And the TGI [48]?
Answer: Its TGI is 13 µM.

Question: And the TGI [49]?
Answer: Its TGI is 2.91 µM.

Question: And the TGI [50]?
Answer: The TGI was 5.78 µM.

Question: What about the TGI [51] of the same compound?
Answer: Its TGI is 13.9 µM.

Question: What about the TGI [52] of the same compound?
Answer: Its TGI is 33 µM.

Question: And the TGI [53]?
Answer: The TGI was 2.87 µM.

Question: What about the TGI [54] of the same compound?
Answer: The TGI was 10.8 µM.

Question: And the TGI [55]?
Answer: The TGI was 4.06 µM.

Question: What about the TGI [56] of the same compound?
Answer: The TGI was 0.674 µM.

Question: And the TGI [57]?
Answer: Its TGI is 3.73 µM.

Question: What about the TGI [58] of the same compound?
Answer: Its TGI is 12.6 µM.

Question: And the TGI [59]?
Answer: The TGI was 9.01 µM.

Question: What does the source list for `CCC(=O)/C=C/c1ccccc1`?
Answer: TGI [1]: > 100 µM; TGI [2]: > 100 µM; TGI [3]: > 100 µM; TGI [4]: > 100 µM; TGI [5]: > 100 µM; TGI [6]: > 100 µM; TGI [7]: 42.9 µM; TGI [8]: > 100 µM; TGI [9]: > 100 µM; TGI [10]: > 100 µM; TGI [11]: > 100 µM; TGI [12]: > 100 µM; TGI [13]: > 100 µM; TGI [14]: > 100 µM; TGI [15]: > 100 µM; TGI [16]: > 100 µM; TGI [17]: > 100 µM; TGI [18]: > 100 µM; TGI [19]: > 100 µM; TGI [20]: > 100 µM; TGI [21]: > 100 µM; TGI [22]: > 100 µM; TGI [23]: > 100 µM; TGI [24]: > 100 µM; TGI [25]: > 100 µM; TGI [26]: > 100 µM; TGI [27]: > 100 µM; TGI [28]: > 100 µM; TGI [29]: > 100 µM; TGI [30]: > 100 µM; TGI [31]: > 100 µM; TGI [32]: > 100 µM; TGI [33]: > 100 µM; TGI [34]: > 100 µM; TGI [35]: > 100 µM; TGI [36]: > 100 µM; TGI [37]: > 100 µM; TGI [38]: > 100 µM; TGI [39]: > 100 µM; TGI [40]: > 100 µM; TGI [41]: > 100 µM; TGI [42]: > 100 µM; TGI [43]: > 100 µM; TGI [44]: > 100 µM; TGI [45]: > 100 µM; TGI [46]: > 100 µM; TGI [47]: > 100 µM; TGI [48]: > 100 µM; TGI [49]: > 100 µM; TGI [50]: 89.2 µM; TGI [51]: > 100 µM; TGI [52]: > 100 µM; TGI [53]: > 100 µM; TGI [54]: > 100 µM; TGI [55]: > 100 µM; TGI [56]: > 100 µM; TGI [57]: > 100 µM; TGI [58]: > 100 µM; TGI [59]: > 100 µM
